Measured values published in paper PMC5218480 (PLoS ONE, 2017).

Tested on: MV-4-11 cells
Assay: Gene expression microarray analysis (Affymetrix PrimeView) and GSEA
Type: cell-based, human
Set-up: RFU PODN (11730768_x_at) / Fold change /veh PODN (11730768_x_at) / RFU LINC00158 (11744669_a_at) / Fold change /veh LINC00158 (11744669_a_at) / RFU DUSP10 (11751237_a_at) / Fold change /veh DUSP10 (11751237_a_at) / RFU ID3 (11757404_x_at) / Fold change /veh ID3 (11757404_x_at) / RFU PLEKHG5 (11737974_s_at) / Fold change /veh PLEKHG5 (11737974_s_at) / RFU LRRC4B (11730491_at) / Fold change /veh LRRC4B (11730491_at) / RFU GIMAP4 (11747438_a_at) / Fold change /veh GIMAP4 (11747438_a_at) / RFU KRT8 (11758183_x_at) / Fold change /veh KRT8 (11758183_x_at) / RFU CNN1 (11734310_a_at) / Fold change /veh CNN1 (11734310_a_at) / RFU VPS37D (11726825_at) / Fold change /veh VPS37D (11726825_at) / RFU C10orf10 (11716522_x_at) / Fold change /veh C10orf10 (11716522_x_at) / RFU KIR2DL2 /// KIR2DL4 /// KIR2DL5A /// KIR2DL5B /// KIR2DS1 /// KIR2DS2 /// KIR2DS3 /// KIR2DS4 /// KIR3DL3 /// KIR3DL3 /// KIR3DS1 (11738374_at) / Fold change /veh KIR2DL2 /// KIR2DL4 /// KIR2DL5A /// KIR2DL5B /// KIR2DS1 /// KIR2DS2 /// KIR2DS3 /// KIR2DS4 /// KIR3DL3 /// KIR3DL3 /// KIR3DS1 (11738374_at) / RFU C1QL1 (11718748_at) / Fold change /veh C1QL1 (11718748_at) / RFU TMPRSS4 (11747572_a_at) / Fold change /veh TMPRSS4 (11747572_a_at) / RFU HAMP (11756126_x_at) / Fold change /veh HAMP (11756126_x_at) / RFU RNFT2 (11725882_a_at) / Fold change /veh RNFT2 (11725882_a_at) / RFU NR4A2 (11747474_a_at) / Fold change /veh NR4A2 (11747474_a_at) / RFU ABCC12 (11746883_a_at) / Fold change /veh ABCC12 (11746883_a_at) / RFU TMEM136 (11760407_x_at) / Fold change /veh TMEM136 (11760407_x_at) / RFU CLDN22 /// WWC2 (11732394_at) / Fold change /veh CLDN22 /// WWC2 (11732394_at) / RFU HLA-DPB1 (11760878_x_at) / Fold change /veh HLA-DPB1 (11760878_x_at) / RFU SPINT1 (11716480_a_at) / Fold change /veh SPINT1 (11716480_a_at) / RFU GAP43 (11754022_s_at) / Fold change /veh GAP43 (11754022_s_at) / RFU A4GNT (11735810_at) / Fold change /veh A4GNT (11735810_at) / RFU PRB3 (11715151_x_at) / Fold change /veh PRB3 (11715151_x_at) / RFU TUBB4B (11761932_at) / Fold change /veh TUBB4B (11761932_at) / RFU CAPN14 (11732068_a_at) / Fold change /veh CAPN14 (11732068_a_at) / RFU TMCC2 (11721928_a_at) / Fold change /veh TMCC2 (11721928_a_at) / RFU IRGQ (11745062_a_at) / Fold change /veh IRGQ (11745062_a_at) / RFU FAM174B (11720279_a_at) / Fold change /veh FAM174B (11720279_a_at) / RFU TMPRSS4 (11748680_a_at) / Fold change /veh TMPRSS4 (11748680_a_at) / RFU FAM212B (11763350_a_at) / Fold change /veh FAM212B (11763350_a_at) / RFU PLEKHG5 (11743358_a_at) / Fold change /veh PLEKHG5 (11743358_a_at) / RFU ZSCAN30 (11745921_a_at) / Fold change /veh ZSCAN30 (11745921_a_at) / RFU CMKLR1 (11741424_a_at) / Fold change /veh CMKLR1 (11741424_a_at) / RFU LOC101060620 /// MAPK8IP1 (11723275_at) / Fold change /veh LOC101060620 /// MAPK8IP1 (11723275_at) / RFU SPTSSB (11747773_x_at) / Fold change /veh SPTSSB (11747773_x_at) / RFU PRSS12 (11739890_at) / Fold change /veh PRSS12 (11739890_at) / RFU BIN1 (11741810_x_at) / Fold change /veh BIN1 (11741810_x_at) / RFU WNT11 (11732464_a_at) / Fold change /veh WNT11 (11732464_a_at) / RFU C10orf10 (11716521_a_at) / Fold change /veh C10orf10 (11716521_a_at) / RFU C5orf56 (11738089_at) / Fold change /veh C5orf56 (11738089_at) / RFU CYB561 (11721691_x_at) / Fold change /veh CYB561 (11721691_x_at) / RFU ANKRD19P (11752326_a_at) / Fold change /veh ANKRD19P (11752326_a_at) / RFU OR2T12 /// OR2T33 /// OR2T8 (11738714_s_at) / Fold change /veh OR2T12 /// OR2T33 /// OR2T8 (11738714_s_at) / RFU VCAN (11748164_a_at) / Fold change /veh VCAN (11748164_a_at) / RFU JSRP1 (11732532_at) / Fold change /veh JSRP1 (11732532_at) / RFU KRTAP10-11 (11738290_x_at) / Fold change /veh KRTAP10-11 (11738290_x_at) / RFU MYO3A (11730013_a_at) / Fold change /veh MYO3A (11730013_a_at) / RFU EBF3 (11725865_a_at) / Fold change /veh EBF3 (11725865_a_at) / RFU CAMK2N1 (11719241_x_at) / Fold change /veh CAMK2N1 (11719241_x_at) / RFU C5orf56 (11738088_a_at) / Fold change /veh C5orf56 (11738088_a_at) / RFU OLFML3 (11715873_a_at) / Fold change /veh OLFML3 (11715873_a_at) / RFU LOC100653217 /// NTM (11731650_a_at) / Fold change /veh LOC100653217 /// NTM (11731650_a_at) / RFU MAPK11 (11762145_a_at) / Fold change /veh MAPK11 (11762145_a_at) / RFU FIZ1 (11724087_x_at) / Fold change /veh FIZ1 (11724087_x_at) / RFU OASL (11726364_x_at) / Fold change /veh OASL (11726364_x_at) / RFU SOX15 (11748057_x_at) / Fold change /veh SOX15 (11748057_x_at) / RFU CD79A (11719716_a_at) / Fold change /veh CD79A (11719716_a_at) / RFU HIST1H1D (11736915_at) / Fold change /veh HIST1H1D (11736915_at) / RFU CASKIN2 (11723855_a_at) / Fold change /veh CASKIN2 (11723855_a_at) / RFU LOC730098 (11760151_x_at) / Fold change /veh LOC730098 (11760151_x_at) / RFU OR4N2 (11742367_at) / Fold change /veh OR4N2 (11742367_at) / RFU PRRT2 (11749266_a_at) / Fold change /veh PRRT2 (11749266_a_at) / RFU SNX32 (11753110_a_at) / Fold change /veh SNX32 (11753110_a_at) / RFU CDHR5 (11726645_a_at) / Fold change /veh CDHR5 (11726645_a_at) / RFU RCAN1 (11760418_a_at) / Fold change /veh RCAN1 (11760418_a_at) / RFU FAM167A (11723789_a_at) / Fold change /veh FAM167A (11723789_a_at) / RFU FAM26E (11764081_at) / Fold change /veh FAM26E (11764081_at) / RFU ISYNA1 (11749810_s_at) / Fold change /veh ISYNA1 (11749810_s_at) / RFU ACY1 (11761880_at) / Fold change /veh ACY1 (11761880_at) / RFU 11764098_at / Fold change /veh 11764098_at / RFU SAMD14 (11745864_x_at) / Fold change /veh SAMD14 (11745864_x_at) / RFU NPB (11741838_a_at) / Fold change /veh NPB (11741838_a_at) / RFU TMPRSS6 (11731388_a_at) / Fold change /veh TMPRSS6 (11731388_a_at) / RFU KRTAP10-2 (11738614_at) / Fold change /veh KRTAP10-2 (11738614_at) / RFU ARHGAP8 /// PRR5-ARHGAP8 (11727945_x_at) / Fold change /veh ARHGAP8 /// PRR5-ARHGAP8 (11727945_x_at) / RFU KRTAP5-7 /// NADSYN1 (11734609_at) / Fold change /veh KRTAP5-7 /// NADSYN1 (11734609_at) / RFU RASL12 (11751679_a_at) / Fold change /veh RASL12 (11751679_a_at) / RFU CDKN2B (11736163_a_at) / Fold change /veh CDKN2B (11736163_a_at) / RFU PRF1 (11729649_at) / Fold change /veh PRF1 (11729649_at) / RFU, ZNF638 /// ZNF638-IT1 / Fold change vs veh, ZNF638 /// ZNF638-IT1 / RFU, PANK3 / Fold change vs veh, PANK3 / RFU, SH3YL1 / Fold change vs veh, SH3YL1 / RFU, ZEB2 / Fold change vs veh, ZEB2 / RFU, NRIP1 / Fold change vs veh, NRIP1 / RFU, PTTG1IP / Fold change vs veh, PTTG1IP / RFU, CAPN2 / Fold change vs veh, CAPN2 / RFU, MED14 / Fold change vs veh, MED14 / RFU, SNORA58 / Fold change vs veh, SNORA58 / RFU, C1orf63 / Fold change vs veh, C1orf63 / RFU, LRRFIP1 / Fold change vs veh, LRRFIP1 / RFU, NDUFAF7 / Fold change vs veh, NDUFAF7 / RFU, SLC12A2 / Fold change vs veh, SLC12A2 / RFU, IBTK / Fold change vs veh, IBTK / RFU, ESF1 / Fold change vs veh, ESF1 / Fold change vs veh, TMEM50B / RFU, TAOK1 / Fold change vs veh, TAOK1 / RFU, ACBD3 / Fold change vs veh, ACBD3 / RFU, TMA16 / Fold change vs veh, TMA16 / RFU, RWDD3 / Fold change vs veh, RWDD3 / RFU, BCAT1 / Fold change vs veh, BCAT1 / RFU, EDEM3 / Fold change vs veh, EDEM3 / RFU, TMEM33 / Fold change vs veh, TMEM33 / RFU, WDR75 / Fold change vs veh, WDR75 / RFU, AHCTF1 / Fold change vs veh, AHCTF1 / RFU, TFRC / Fold change vs veh, TFRC / RFU, ZDHHC17 / Fold change vs veh, ZDHHC17 / RFU, NOM1 / Fold change vs veh, NOM1 / RFU, ARL8B / Fold change vs veh, ARL8B / RFU, ZBTB11 / Fold change vs veh, ZBTB11 / RFU, TAMM41 / Fold change vs veh, TAMM41 / RFU, KIAA1704 /// LOC100996395 / Fold change vs veh, KIAA1704 /// LOC100996395 / RFU, ING1 / Fold change vs veh, ING1 / RFU, TRMT61B / Fold change vs veh, TRMT61B / RFU, FUBP3 / Fold change vs veh, FUBP3 / RFU, TP53 / Fold change vs veh, TP53 / RFU, TNKS2 / Fold change vs veh, TNKS2 / RFU, ZFP14 / Fold change vs veh, ZFP14 / RFU, ACTR2 / Fold change vs veh, ACTR2 / RFU, PPP3R1 / Fold change vs veh, PPP3R1 / RFU, PIK3R1 / Fold change vs veh, PIK3R1 / RFU, HNRNPA1 / Fold change vs veh, HNRNPA1 / RFU, RNF170 / Fold change vs veh, RNF170 / RFU, ZNF28 / Fold change vs veh, ZNF28 / RFU, RNGTT / Fold change vs veh, RNGTT / RFU, OGT / Fold change vs veh, OGT / RFU, BRD1 / Fold change vs veh, BRD1 / RFU, MARS / Fold change vs veh, MARS / RFU, ZNF655 / Fold change vs veh, ZNF655 / RFU, FAHD1 / Fold change vs veh, FAHD1 / RFU, BDP1 / Fold change vs veh, BDP1 / RFU, LRRCC1 / Fold change vs veh, LRRCC1 / RFU, ARID1A / Fold change vs veh, ARID1A / RFU, ZNF146 / Fold change vs veh, ZNF146 / RFU, ZNF330 / Fold change vs veh, ZNF330 / RFU, GPN3 / Fold change vs veh, GPN3 / RFU, C9orf123 / Fold change vs veh, C9orf123 / RFU, N4BP2L2 / Fold change vs veh, N4BP2L2 / RFU, ARFIP1 / Fold change vs veh, ARFIP1 / RFU, FAM179B / Fold change vs veh, FAM179B / RFU, BCL10 / Fold change vs veh, BCL10 / RFU, UHRF1BP1L / Fold change vs veh, UHRF1BP1L / RFU, BET1 / Fold change vs veh, BET1 / RFU, CNOT2 / Fold change vs veh, CNOT2 / RFU, ZNF268 / Fold change vs veh, ZNF268 / Fold change vs veh, ZNF507 / RFU, DGCR2 / Fold change vs veh, DGCR2 / RFU, WDSUB1 / Fold change vs veh, WDSUB1 / Fold change vs veh, HSP90B1 /// MIR3652 / RFU, ADSS / Fold change vs veh, ADSS / RFU, GK / Fold change vs veh, GK / RFU, ZNF148 / Fold change vs veh, ZNF148 / RFU, TAF9 / Fold change vs veh, TAF9 / RFU, SLC1A5 / Fold change vs veh, SLC1A5 / RFU, SLMO2 / Fold change vs veh, SLMO2 / RFU, ABCC4 / Fold change vs veh, ABCC4 / RFU, LOC101060439 /// RAP1B / Fold change vs veh, LOC101060439 /// RAP1B / RFU, RFX7 / Fold change vs veh, RFX7 / RFU, GTPBP10 / Fold change vs veh, GTPBP10 / RFU, CNEP1R1 / Fold change vs veh, CNEP1R1 / RFU, BIVM-ERCC5 /// ERCC5 / Fold change vs veh, BIVM-ERCC5 /// ERCC5 / RFU, ILF3 / Fold change vs veh, ILF3 / RFU 11762660_at / Fold change /veh 11762660_at / RFU VCAN (11757783_s_at) / Fold change /veh VCAN (11757783_s_at) / RFU DDX43 (11728927_at) / Fold change /veh DDX43 (11728927_at) / RFU KRT8 (11758188_x_at) / Fold change /veh KRT8 (11758188_x_at) / RFU NKD1 (11759106_at) / Fold change /veh NKD1 (11759106_at) / RFU SRD5A1 (11742802_a_at) / Fold change /veh SRD5A1 (11742802_a_at) / RFU TPSAB1 /// TPSB2 (11721975_s_at) / Fold change /veh TPSAB1 /// TPSB2 (11721975_s_at) / RFU GSTM3 (11746129_a_at) / Fold change /veh GSTM3 (11746129_a_at) / RFU IL23R (11737362_x_at) / Fold change /veh IL23R (11737362_x_at) / RFU TMEM51 (11727254_a_at) / Fold change /veh TMEM51 (11727254_a_at) / RFU PIWIL2 (11732686_x_at) / Fold change /veh PIWIL2 (11732686_x_at) / RFU ORM1 (11744905_x_at) / Fold change /veh ORM1 (11744905_x_at) / RFU CCDC152 (11743942_at) / Fold change /veh CCDC152 (11743942_at) / RFU ECM1 (11717891_a_at) / Fold change /veh ECM1 (11717891_a_at) / RFU IL23R (11748794_a_at) / Fold change /veh IL23R (11748794_a_at) / RFU TNFAIP8L3 (11732012_x_at) / Fold change /veh TNFAIP8L3 (11732012_x_at) / RFU MBOAT4 (11741988_at) / Fold change /veh MBOAT4 (11741988_at) / RFU 11764193_at / Fold change /veh 11764193_at / RFU TMEM53 (11763286_at) / Fold change /veh TMEM53 (11763286_at) / RFU MAGEB2 (11727129_at) / Fold change /veh MAGEB2 (11727129_at) / RFU TMEM200A (11744735_a_at) / Fold change /veh TMEM200A (11744735_a_at) / RFU CCDC152 (11751479_a_at) / Fold change /veh CCDC152 (11751479_a_at) / RFU FAM211A (11726209_a_at) / Fold change /veh FAM211A (11726209_a_at) / RFU RGS16 (11746705_a_at) / Fold change /veh RGS16 (11746705_a_at) / RFU VCAN (11755009_s_at) / Fold change /veh VCAN (11755009_s_at) / RFU RHOB (11743442_s_at) / Fold change /veh RHOB (11743442_s_at) / RFU RGS16 (11720943_a_at) / Fold change /veh RGS16 (11720943_a_at) / RFU RGS16 (11720944_at) / Fold change /veh RGS16 (11720944_at) / RFU, VPS4B / Fold change vs veh, VPS4B / RFU, CREB1 / Fold change vs veh, CREB1 / RFU, DNAJC13 / Fold change vs veh, DNAJC13 / RFU, GNAQ / Fold change vs veh, GNAQ / RFU, CDK5R1 / Fold change vs veh, CDK5R1 / RFU, ZRANB3 / Fold change vs veh, ZRANB3 / RFU, CUL4A / Fold change vs veh, CUL4A / RFU, CCNY / Fold change vs veh, CCNY / RFU, UFL1 / Fold change vs veh, UFL1 / RFU, COG3 / Fold change vs veh, COG3 / RFU, DIAPH2 / Fold change vs veh, DIAPH2 / RFU, SKA2 / Fold change vs veh, SKA2 / RFU, AFF3 / Fold change vs veh, AFF3 / RFU, LMF1 / Fold change vs veh, LMF1 / RFU, IPO11 / Fold change vs veh, IPO11 / RFU, DFFB / Fold change vs veh, DFFB / RFU, FOXP1 / Fold change vs veh, FOXP1 / RFU, CARD8 / Fold change vs veh, CARD8 / RFU, STRN3 / Fold change vs veh, STRN3 / RFU, ADK / Fold change vs veh, ADK / RFU, RASSF2 / Fold change vs veh, RASSF2 / RFU, WIPF1 / Fold change vs veh, WIPF1 / RFU, LARP1B / Fold change vs veh, LARP1B / RFU, RASA1 / Fold change vs veh, RASA1 / RFU, RB1 / Fold change vs veh, RB1 / RFU, PPFIA1 / Fold change vs veh, PPFIA1 / RFU, MAT2A / Fold change vs veh, MAT2A / RFU, CCT5 / Fold change vs veh, CCT5 / RFU, WDR92 / Fold change vs veh, WDR92 / RFU, CUX1 / Fold change vs veh, CUX1 / RFU, TTC7A / Fold change vs veh, TTC7A / RFU, TMEM135 / Fold change vs veh, TMEM135 / RFU, DEPTOR / Fold change vs veh, DEPTOR / RFU, CPM / Fold change vs veh, CPM / RFU, DNAJB6 / Fold change vs veh, DNAJB6 / RFU, CACNA2D3 / Fold change vs veh, CACNA2D3 / RFU, DTX4 / Fold change vs veh, DTX4 / RFU, TFCP2 / Fold change vs veh, TFCP2 / RFU, GMCL1 /// GMCL1P1 / Fold change vs veh, GMCL1 /// GMCL1P1 / RFU, AEBP2 / Fold change vs veh, AEBP2 / RFU, SNHG1 /// SNORD22 /// SNORD25 /// SNORD26 /// SNORD27 /// SNORD28 /// SNORD29 /// SNORD31 / Fold change vs veh, SNHG1 /// SNORD22 /// SNORD25 /// SNORD26 /// SNORD27 /// SNORD28 /// SNORD29 /// SNORD31 / Fold change (Aza/veh), C12orf56 (ProbeSet 11735607_a_at) / Fold change (ACY-1035/veh), C12orf56 (ProbeSet 11735607_a_at) / Fold change (Aza/veh), FGFR1OP (ProbeSet 11751329_s_at) / Fold change (ACY-1035/veh), FGFR1OP (ProbeSet 11751329_s_at) / Fold change (Aza/veh), VPS36 (ProbeSet 11739960_a_at) / Fold change (ACY-1035/veh), VPS36 (ProbeSet 11739960_a_at) / RFU SYPL1 (11715823_x_at) / Fold change /veh SYPL1 (11715823_x_at) / RFU IGFBP7 (11715501_s_at) / Fold change /veh IGFBP7 (11715501_s_at) / RFU REEP3 (11722064_at) / Fold change /veh REEP3 (11722064_at) / RFU IGLL1 (11728026_x_at) / Fold change /veh IGLL1 (11728026_x_at): dose or concentration left out as unconfirmed
Details: MV-4-11 cells, 48 hours

Compound: Nc1ncn([C@@H]2O[C@H](CO)[C@@H](O)[C@H]2O)c(=O)n1 [azacitidine]
- Fold change /veh IL23R (11737362_x_at): 1.70
